Results taken from the supplement of paper PMC10307832.

Key:
Experiment in all cases: relative viability (nuclei count vs DMSO), 5 days (fraction); higher = more cells survive
VE-821 + Tozasertib = compound: CS(=O)(=O)c1ccc(-c2cnc(N)c(C(=O)Nc3ccccc3)n2)cc1 [VE-821] + Cc1cc(Nc2cc(N3CCN(C)CC3)nc(Sc3ccc(NC(=O)C4CC4)cc3)n2)n[nH]1 [Tozasertib] (partner 0.1 µM)
Method in brief: (§1)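 Relative viability equals treated-well nuclei counts divided by vehicle-well nuclei counts. Counts came from 4× images of lung cancer cell lines grown in 1536-well plates for 5 days after pin-tool dosing on the day after seeding. Dosing used one drug alone or a fixed anchor-drug dose plus five library-drug doses (not always all listed) in √10 steps, and values are medians of duplicate plates.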

VE-821 + Vorinostat = compound: CS(=O)(=O)c1ccc(-c2cnc(N)c(C(=O)Nc3ccccc3)n2)cc1 [VE-821] + O=C(CCCCCCC(=O)Nc1ccccc1)NO [Vorinostat] (partner 1 µM)
Method in brief: as §1

Vismodegib + Linsitinib = compound: CS(=O)(=O)c1ccc(C(=O)Nc2ccc(Cl)c(-c3ccccn3)c2)c(Cl)c1 [Vismodegib] + C[C@]1(O)C[C@@H](c2nc(-c3ccc4ccc(-c5ccccc5)nc4c3)c3c(N)nccn32)C1 [Linsitinib] (partner 1 µM)
Method in brief: as §1

Ruxolitinib + Phenformin = compound: N#CC[C@H](C1CCCC1)n1cc(-c2ncnc3[nH]ccc23)cn1 [Ruxolitinib] + N=C(N)NC(=N)NCCc1ccccc1 [Phenformin] (partner 250 µM)
Method in brief: as §1

Cell Line | relative viability (VE-821 + Tozasertib; first compound 0.08 µM) | relative viability (VE-821 + Tozasertib; first compound 0.253 µM) | relative viability (VE-821 + Tozasertib; first compound 0.8 µM) | relative viability (VE-821 + Tozasertib; first compound 2.53 µM) | relative viability (VE-821 + Tozasertib; first compound 8 µM) | relative viability (VE-821 + Vorinostat; first compound 0.08 µM) | relative viability (VE-821 + Vorinostat; first compound 0.253 µM) | relative viability (VE-821 + Vorinostat; first compound 0.8 µM) | relative viability (VE-821 + Vorinostat; first compound 2.53 µM) | relative viability (VE-821 + Vorinostat; first compound 8 µM) | relative viability (Vismodegib + Linsitinib; first compound 0.08 µM) | relative viability (Vismodegib + Linsitinib; first compound 0.253 µM) | relative viability (Vismodegib + Linsitinib; first compound 0.8 µM) | relative viability (Vismodegib + Linsitinib; first compound 2.53 µM) | relative viability (Vismodegib + Linsitinib; first compound 8 µM) | relative viability (Ruxolitinib + Phenformin; first compound 0.08 µM) | relative viability (Ruxolitinib + Phenformin; first compound 0.253 µM) | relative viability (Ruxolitinib + Phenformin; first compound 0.8 µM) | relative viability (Ruxolitinib + Phenformin; first compound 2.53 µM) | relative viability (Ruxolitinib + Phenformin; first compound 8 µM)
HCC-78 | 0.461 | 0.362 | 0.385 | 0.372 | 0.321 | 0.388 | 0.53 | 0.393 | 0.493 | 0.417 | 0.474 | 0.477 | 0.406 | 0.588 | 0.488 | 0.756 | 0.563 | 0.788 | 0.662 | 0.729
HCC-366 | 0.0768 | 0.0713 | 0.0434 | 0.0568 | 0.0298 | 0.426 | 0.269 | 0.28 | 0.121 | 0.0472 | 0.628 | 0.636 | 0.575 | 0.563 | 0.703 | 0.584 | 0.654 | 0.667 | 0.542 | 0.472
HCC-827 | 0.427 | 0.424 | 0.391 | 0.394 | 0.372 | 0.728 | 0.779 | 0.856 | 0.837 | 0.722 | 0.926 | 0.906 | 0.949 | 0.896 | 1.04 |  | 0.35 | 0.32 | 0.304 | 0.411
HOP-62 | 0.399 | 0.404 | 0.349 | 0.382 | 0.361 | 0.766 | 0.542 | 0.644 | 0.771 | 0.469 | 0.988 | 0.873 | 1.16 | 0.748 | 0.979 | 0.678 | 0.629 | 0.699 | 0.668 | 0.63
IA-LM |  |  |  |  |  | 0.951 | 0.976 | 0.941 | 1.26 | 0.903 | 0.629 | 0.493 | 0.68 | 0.579 | 0.63 |  |  |  |  | 
LC-2-ad | 0.427 | 0.597 | 0.504 | 0.565 | 0.426 | 0.758 | 0.748 | 0.768 | 0.8 | 0.659 | 0.824 | 0.794 | 0.849 | 0.82 | 0.828 |  | 0.515 | 0.561 | 0.553 | 0.456
LCLC-97TM1 | 0.307 | 0.224 | 0.213 | 0.484 | 0.184 | 0.84 | 0.65 | 0.879 | 1.01 | 0.327 |  |  | 0.174 |  | 0.211 | 0.438 | 0.43 | 0.507 | 0.428 | 0.378
LCLC-103H | 0.505 | 0.424 | 0.389 | 0.458 | 0.362 | 0.863 | 0.772 | 0.783 | 0.834 | 0.592 | 0.938 | 1.05 | 0.988 | 1.05 | 1.04 | 0.349 | 0.326 | 0.298 | 0.337 | 0.286
LK-2 | 0.172 | 0.174 | 0.161 | 0.197 | 0.202 | 0.335 | 0.253 | 0.416 | 0.408 | 0.397 | 0.427 | 0.49 | 0.539 | 0.46 | 0.378 | 0.337 | 0.499 | 0.359 | 0.292 | 0.692
LOU-NH91 | 0.69 | 0.666 | 0.665 | 0.701 | 0.54 | 0.885 | 0.879 | 0.919 | 0.966 | 0.825 | 0.926 | 0.972 | 0.916 | 0.951 | 0.961 |  | 0.708 | 0.765 | 0.63 | 0.747
LU99A | 0.264 | 0.299 | 0.277 | 0.24 | 0.227 | 0.515 | 0.462 | 0.471 | 0.431 | 0.299 | 0.521 | 0.507 | 0.508 | 0.464 | 0.621 | 1.06 | 0.931 | 0.801 | 0.782 | 0.755
NCI-H522 | 0.633 | 0.63 | 0.537 | 0.453 | 0.575 | 1.02 | 0.811 | 0.921 | 0.994 | 0.732 |  |  |  |  |  | 0.663 | 0.644 | 0.728 | 0.575 | 0.617
NCI-H1299 |  |  |  |  |  |  |  |  |  |  | 0.979 | 0.952 | 0.994 | 0.929 | 0.991 |  |  |  |  | 
NCI-H1563 |  |  |  |  |  |  |  |  |  |  | 1.17 | 1.34 | 1.26 | 1.01 | 1.2 | 0.667 | 0.69 | 0.643 | 0.593 | 0.602
NCI-H1623 | 0.481 | 0.404 | 0.398 | 0.463 | 0.364 |  |  |  |  |  |  |  |  |  |  | 0.525 | 0.608 | 0.574 | 0.637 | 0.343
NCI-H1648 | 0.415 | 0.608 | 0.518 | 0.61 | 0.345 | 0.483 |  | 0.485 | 0.532 | 0.641 |  |  |  |  |  |  |  |  |  | 
NCI-H1650 | 0.457 | 0.416 | 0.278 | 0.299 | 0.208 | 0.498 | 0.737 | 0.524 | 0.578 | 0.437 |  |  |  |  |  |  | 0.315 | 0.455 | 0.388 | 0.331
NCI-H1703 |  |  |  |  |  |  |  |  |  |  | 0.928 | 0.77 | 0.928 | 0.618 | 1.19 |  |  |  |  | 
NCI-H1792 |  |  |  |  |  |  |  |  |  |  | 0.532 | 0.558 | 0.409 | 0.572 | 0.503 | 0.253 | 0.241 | 0.261 | 0.146 | 0.128
NCI-H2170 | 0.744 | 0.727 | 0.662 | 0.794 | 0.477 | 0.923 | 0.687 | 0.872 | 0.805 | 0.635 |  |  |  |  |  | 0.382 | 0.391 | 0.417 | 0.374 | 0.351
NCI-H2342 | 0.434 | 0.489 | 0.45 | 0.415 | 0.365 | 0.702 | 0.673 | 0.723 | 0.774 | 0.841 |  |  |  |  |  | 0.55 | 0.484 | 0.662 | 0.55 | 0.613
SW 900 | 0.604 | 0.493 | 0.38 | 0.333 | 0.248 | 0.503 | 0.449 | 0.453 | 0.305 | 0.341 |  |  |  |  |  | 0.532 | 0.624 | 0.702 | 0.543 | 0.457
